According to ChEMBL document CHEMBL1240391, “High prevalence of ST131 isolates producing CTX-M-15 and CTX-M-14 among extended-spectrum-beta-lactamase-producing Escherichia coli isolates from Canada” (2010):

Tests used:
Assay type in all cases: functional
Escherichia coli [1] = assay: Antimicrobial activity against CTX-M15/CTX-M14 ESBL producing Escherichia coli ST131 clonal complex isolate assessed as nonsusceptible isolates by CLSI method
Escherichia coli [2] = assay: Antimicrobial activity against ESBL producing Escherichia coli assessed as nonsusceptible isolates by CLSI method
Escherichia coli [3] = assay: Antimicrobial activity against Escherichia coli assessed as nonsusceptible isolates by CLSI method

Compound: GENTAMICIN
- Activity (Escherichia coli [1]): 67%
- Activity (Escherichia coli [2]): 35%
- Activity (Escherichia coli [3]): 50%

Compound: NCC[C@H](O)C(=O)N[C@@H]1C[C@H](N)[C@@H](O[C@H]2O[C@H](CN)[C@@H](O)[C@H](O)[C@H]2O)[C@H](O)[C@H]1O[C@H]1O[C@H](CO)[C@@H](O)[C@H](N)[C@H]1O [AMIKACIN]
- Activity (Escherichia coli [1]): 45%
- Activity (Escherichia coli [2]): 35%
- Activity (Escherichia coli [3]): 39%

Compound: O=C1CN(/N=C/c2ccc([N+](=O)[O-])o2)C(=O)N1 [NITROFURANTOIN]
- Activity (Escherichia coli [1]): 4%
- Activity (Escherichia coli [2]): 12%
- Activity (Escherichia coli [3]): 8%

Compound: NC[C@H]1O[C@H](O[C@H]2[C@H](O)[C@@H](O[C@H]3O[C@H](CO)[C@@H](O)[C@H](N)[C@H]3O)[C@H](N)C[C@@H]2N)[C@H](N)C[C@@H]1O [TOBRAMYCIN]
- Activity (Escherichia coli [1]): 93%
- Activity (Escherichia coli [2]): 49%
- Activity (Escherichia coli [3]): 69%
